In patent US20150010545A1 (KADMON CORPORATION, LLC, priority 2011, published 2015):
Values belong to the compound of their own block, whether it stands above or below them.

Key:
HMVECs = conditions: human
JIMT-1 cells = experiment: JIMT-1 cell proliferation assay (CellTiter 96 AQueous); assay type: cell-based; conditions: Homo sapiens, 72 hours
[1] = tested on: murine MS1 endothelial cells; experiment: scratch assay, VEGF-stimulated endothelial cell migration
HCC1954 cells = experiment: HCC1954 cell proliferation assay (CellTiter 96 AQueous); assay type: cell-based; conditions: Homo sapiens, 72 hours
BT474 tumor xenografts = experiment: BT474 tumor xenograft growth in athymic nude mice; assay type: in vivo, human; conditions: oral, three consecutive days
Method: The human breast cancer cell line BT474 expresses high levels of ErbB2 (Her2), a significant fraction of which is constitutively phosphorylated even in the absence of an exogenous ligand. The phosphorylation of ErbB2 is a measure of its activity. Athymic nude mice bearing tumor xenografts derived from the human breast cancer cell line BT474 were treated orally on three consecutive days with 3, 10, 30 or 100 mg/kg of EXEL-7647. The tumors were harvested 1 hr after the final dose was administered and their weights were measured.

KDR = target: T1, KDR (Mus musculus, UniProt P35918); experiment: VEGF-induced KDR phosphorylation in mouse lungs; assay type: in vivo, mice; conditions: mouse lung lysate pools; read-out: IC50 of decrease of VEGF-induced KDR receptor phosphorylation (plasma concentration)
T1 construct: from tissue; host or cells: mouse lung

[2] = tested on: MDA-MB-231 tumor xenografts; experiment: MDA-MB-231 xenografts, 14-day dosing: tumor growth, necrosis, CD31, Ki67; assay type: in vivo, human; conditions: fourteen days; for CD31 Analysis MVC (mean vessel count) / Ki67 Expression % of Cells / Necrosis % increase: mean (SD)
Method: Anti-angiogenic effects of EXEL-7647 were also studied in vivo. Tumor xenografts derived from the human breast cancer cell line MDA-MB-231 were established in athymic female mice and allowed to reach a total weight of 100 mg. The mice were then treated orally on fourteen consecutive days with doses of 10, 30 or 100 mg/kg of EXEL-7647. The tumors were harvested and their weights were measured after the last dosage had been administered. Tumors derived from mice treated with vehicle alone served as negative controls. […] A statistically significant increase in tumor necrosis was not observed at the lower dose of 10 mg/kg in this model.

[3] = tested on: human microvascular endothelial cells (HMVECs); experiment: VEGF-induced endothelial tubule formation assay; assay type: cell-based; conditions: HMVEC; HMVECs on human diploid fibroblasts, CD31 staining; read-out: IC50 of inhibition of VEGF-induced tubule formation
Source text: When plated on a confluent layer of normal human diploid fibroblasts, human microvascular endothelial cells (HMVECs) form extensive networks of tubules in response to VEGF over a 7-10 day period.

[4] = cytotoxicity on HMVECs, Alamar blue staining; conditions: human, human microvascular endothelial cells (HMVECs)
EGFR = EGFR (Homo sapiens, UniProt P00533); experiment: EGF-induced EGFR phosphorylation in A431 tumor xenografts in mice; assay type: in vivo
[5] = tested on: MDA-MB-231 tumor xenografts; experiment: MDA-MB-231 xenograft growth, up to 28-day dosing; assay type: in vivo, human
Method: The ability of EXEL-7647 to inhibit the growth of tumors derived from the human breast cancer cell line MDA-MB-231 was validated as follows. Tumor xenografts derived from MDA-MB-231 cells were established in athymic female mice and allowed to reach a total weight of 100 mg. The mice were then treated orally on up to twenty-eight consecutive days with doses of 10, 30 or 100 mg/kg of EXEL-7647. The tumors were harvested on specific days after treatment with XL647 had begun and their weights were measured, as indicated in FIG. 7. Tumors derived from mice treated with vehicle alone served as negative controls.

Src [6] = target: T2, Src (Homo sapiens, UniProt P12931); experiment: in vitro SRC kinase assay; assay type: biochemical; conditions: in vitro kinase assays; read-out: IC50 of inhibition of SRC kinase activity
Method: (§1) Inhibition of SRC kinase activity by EXEL-7647 was measured using in vitro kinase assays. […] In addition, the effect of EXEL-7647 on the phosphorylation of the […] protein FAK (focal adhesion kinase) was measured in cell culture (FIG. 1). Specifically, DLD1-PTK2 cells were treated with EXEL-7647 at concentrations of 1.6, 4.7, 14, 41, 123, 370, 1111, 3333 or 10,000 nM for one hour in serum-free DMEM and harvested. The phosphorylation status of the tyrosine at amino acid position 861 of the FAK protein (“FAK-PY861”) in the treated cells was then determined by standard Western blotting using phosphorylation-specific antibodies, as indicated in FIG. 1. The Western blot was quantified using a Typhoon scanned image and ImageQuant software and the IC50 value for EXEL-7647-mediated inhibition of FAK-phosphorylation calculated. […] The kinase inhibitor staurosporine (EXEL 00878128) was used as a positive control. […] The identifier EXEL-02377647:9 in FIG. 1 refers to compound EXEL-7647.

EphB4 = target: T3, EphB4 (Homo sapiens, UniProt P54760); experiment: EphB4 phosphorylation in HCT116/EphB4 xenografts in mice; assay type: in vivo
T3 construct: expressed in transfected cells; host or cells: HCT116 (human colon carcinoma), grown as xenografts in mice
T3 sequence (P54760 16-987): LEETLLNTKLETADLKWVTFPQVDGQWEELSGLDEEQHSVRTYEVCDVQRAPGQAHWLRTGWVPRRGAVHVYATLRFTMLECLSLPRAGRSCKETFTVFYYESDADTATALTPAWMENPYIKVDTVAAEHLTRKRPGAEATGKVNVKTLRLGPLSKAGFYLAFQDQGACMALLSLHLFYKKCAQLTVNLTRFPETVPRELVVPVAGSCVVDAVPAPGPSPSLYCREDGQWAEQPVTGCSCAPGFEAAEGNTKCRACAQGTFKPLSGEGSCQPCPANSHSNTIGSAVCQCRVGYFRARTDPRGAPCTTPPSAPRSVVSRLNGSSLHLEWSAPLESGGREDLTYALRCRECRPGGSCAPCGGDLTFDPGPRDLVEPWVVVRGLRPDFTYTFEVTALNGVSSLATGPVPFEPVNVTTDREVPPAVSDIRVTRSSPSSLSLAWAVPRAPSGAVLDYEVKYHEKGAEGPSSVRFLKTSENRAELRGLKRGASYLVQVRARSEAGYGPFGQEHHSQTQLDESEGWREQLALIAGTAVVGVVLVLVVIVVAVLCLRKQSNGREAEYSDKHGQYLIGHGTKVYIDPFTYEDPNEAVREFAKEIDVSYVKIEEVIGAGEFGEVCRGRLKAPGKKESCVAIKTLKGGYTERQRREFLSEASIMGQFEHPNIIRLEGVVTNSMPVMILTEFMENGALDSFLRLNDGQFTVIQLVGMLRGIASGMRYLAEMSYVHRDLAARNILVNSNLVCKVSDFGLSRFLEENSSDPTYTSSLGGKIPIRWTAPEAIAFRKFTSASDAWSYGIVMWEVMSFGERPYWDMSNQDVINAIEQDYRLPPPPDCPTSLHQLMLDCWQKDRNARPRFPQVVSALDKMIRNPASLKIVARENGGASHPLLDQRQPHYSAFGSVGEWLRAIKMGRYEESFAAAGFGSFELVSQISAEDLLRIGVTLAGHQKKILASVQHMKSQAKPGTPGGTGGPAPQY
Source text: The ability of EXEL-7647 to inhibit the activity of the EphB4 receptor (determined by measuring the receptor's level of phosphorylation) was validated as follows. A cell line expressing high levels of EphB4 was derived by transfecting the human colon carcinoma line HCT116 with a drug selectable marker and an expression vector encoding EphB4. The resulting EphB4 expressing cells (HCT116/EphB4) grow as xenografts in immunocompromised mice. […] Attempts to further stimulate EphB4-phosphorylation by intravenous or intratumoral injection of […] were not successful (data not shown).
Mice bearing HCT116/EphB4 xenografts were dosed orally on three consecutive days with 3, 10, 30 or 100 mg/kg EXEL-7647. Tumors were harvested 1 hr after the final dose and assayed individually or in treatment groups for total and phospho-EphB4 levels by standard Western blotting (FIG. 5, left panel). Tumors from mice treated with vehicle alone served as the negative control. The detection of actin served as a control for protein integrity and concentration.
The plasma concentrations of EXEL-7647 in the mice carrying the analyzed tumors (see above) were determined as well and correlated with the corresponding reductions of phospho-EPHB4 levels (FIG. 5, right panel).

[7] = tested on: FAK (focal adhesion kinase); experiment: FAK (PY861) phosphorylation in DLD1-PTK2 cells, Western blot; assay type: cell-based; conditions: one hour, serum-free DMEM, read-out: IC50 of inhibition of FAK phosphorylation at tyrosine 861
Method: as §1

ErbB2 (Her2) = ErbB2 (Her2) (Homo sapiens, UniProt P04626); experiment: ErbB2 phosphorylation in BT474 tumor xenografts in mice; assay type: in vivo
Src [8] = target: T2, Src; conditions: both cell lines (JIMT-1, HCC1954), 18 hours of treatment

ErbB2 (Her2), sequence (P04626 23-1255): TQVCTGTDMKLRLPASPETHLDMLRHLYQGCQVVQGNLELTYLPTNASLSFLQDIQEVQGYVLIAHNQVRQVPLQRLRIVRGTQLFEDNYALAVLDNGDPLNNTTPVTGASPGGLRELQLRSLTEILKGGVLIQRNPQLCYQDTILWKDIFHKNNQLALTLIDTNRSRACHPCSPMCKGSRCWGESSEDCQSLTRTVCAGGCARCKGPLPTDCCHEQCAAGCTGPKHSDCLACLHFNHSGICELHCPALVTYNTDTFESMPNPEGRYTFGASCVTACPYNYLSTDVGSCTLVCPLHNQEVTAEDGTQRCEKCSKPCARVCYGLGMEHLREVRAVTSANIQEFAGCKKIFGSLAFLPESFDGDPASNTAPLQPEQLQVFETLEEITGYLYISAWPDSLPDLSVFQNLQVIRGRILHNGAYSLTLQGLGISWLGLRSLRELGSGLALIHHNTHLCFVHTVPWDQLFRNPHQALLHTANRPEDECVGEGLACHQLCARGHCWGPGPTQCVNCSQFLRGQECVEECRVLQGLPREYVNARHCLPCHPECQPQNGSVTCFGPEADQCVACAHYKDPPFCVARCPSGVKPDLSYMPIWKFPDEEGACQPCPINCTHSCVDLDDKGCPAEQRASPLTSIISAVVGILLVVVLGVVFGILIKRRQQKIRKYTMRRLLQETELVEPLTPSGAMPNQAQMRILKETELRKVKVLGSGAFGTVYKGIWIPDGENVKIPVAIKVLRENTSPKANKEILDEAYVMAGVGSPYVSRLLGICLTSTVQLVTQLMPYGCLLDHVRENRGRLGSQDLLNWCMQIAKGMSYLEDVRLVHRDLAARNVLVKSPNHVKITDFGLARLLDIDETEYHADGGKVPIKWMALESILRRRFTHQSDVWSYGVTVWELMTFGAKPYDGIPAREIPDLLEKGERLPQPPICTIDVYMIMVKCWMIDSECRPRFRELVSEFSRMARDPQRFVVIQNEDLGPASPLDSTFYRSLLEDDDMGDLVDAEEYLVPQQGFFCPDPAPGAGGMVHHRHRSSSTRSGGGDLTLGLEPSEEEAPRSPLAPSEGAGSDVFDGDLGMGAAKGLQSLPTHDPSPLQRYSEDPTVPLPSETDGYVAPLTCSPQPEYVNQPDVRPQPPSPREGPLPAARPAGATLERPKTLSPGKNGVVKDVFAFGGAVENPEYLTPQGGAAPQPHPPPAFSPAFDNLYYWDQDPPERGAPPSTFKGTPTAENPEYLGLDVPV
T2 sequence (P12931 whole entry): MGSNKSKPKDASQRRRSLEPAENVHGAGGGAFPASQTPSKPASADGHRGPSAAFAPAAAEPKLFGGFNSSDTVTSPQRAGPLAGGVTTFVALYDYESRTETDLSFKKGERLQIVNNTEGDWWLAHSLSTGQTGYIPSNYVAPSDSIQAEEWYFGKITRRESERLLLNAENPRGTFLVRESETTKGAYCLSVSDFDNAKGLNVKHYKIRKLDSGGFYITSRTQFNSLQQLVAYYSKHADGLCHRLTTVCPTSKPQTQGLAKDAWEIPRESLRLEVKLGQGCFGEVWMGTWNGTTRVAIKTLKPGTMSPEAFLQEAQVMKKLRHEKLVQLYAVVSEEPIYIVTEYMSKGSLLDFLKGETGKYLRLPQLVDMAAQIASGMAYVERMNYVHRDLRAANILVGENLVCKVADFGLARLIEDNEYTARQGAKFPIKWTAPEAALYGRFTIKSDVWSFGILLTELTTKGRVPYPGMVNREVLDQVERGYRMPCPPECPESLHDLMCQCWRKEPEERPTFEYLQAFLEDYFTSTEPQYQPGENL
EGFR, sequence (P00533 25-1210): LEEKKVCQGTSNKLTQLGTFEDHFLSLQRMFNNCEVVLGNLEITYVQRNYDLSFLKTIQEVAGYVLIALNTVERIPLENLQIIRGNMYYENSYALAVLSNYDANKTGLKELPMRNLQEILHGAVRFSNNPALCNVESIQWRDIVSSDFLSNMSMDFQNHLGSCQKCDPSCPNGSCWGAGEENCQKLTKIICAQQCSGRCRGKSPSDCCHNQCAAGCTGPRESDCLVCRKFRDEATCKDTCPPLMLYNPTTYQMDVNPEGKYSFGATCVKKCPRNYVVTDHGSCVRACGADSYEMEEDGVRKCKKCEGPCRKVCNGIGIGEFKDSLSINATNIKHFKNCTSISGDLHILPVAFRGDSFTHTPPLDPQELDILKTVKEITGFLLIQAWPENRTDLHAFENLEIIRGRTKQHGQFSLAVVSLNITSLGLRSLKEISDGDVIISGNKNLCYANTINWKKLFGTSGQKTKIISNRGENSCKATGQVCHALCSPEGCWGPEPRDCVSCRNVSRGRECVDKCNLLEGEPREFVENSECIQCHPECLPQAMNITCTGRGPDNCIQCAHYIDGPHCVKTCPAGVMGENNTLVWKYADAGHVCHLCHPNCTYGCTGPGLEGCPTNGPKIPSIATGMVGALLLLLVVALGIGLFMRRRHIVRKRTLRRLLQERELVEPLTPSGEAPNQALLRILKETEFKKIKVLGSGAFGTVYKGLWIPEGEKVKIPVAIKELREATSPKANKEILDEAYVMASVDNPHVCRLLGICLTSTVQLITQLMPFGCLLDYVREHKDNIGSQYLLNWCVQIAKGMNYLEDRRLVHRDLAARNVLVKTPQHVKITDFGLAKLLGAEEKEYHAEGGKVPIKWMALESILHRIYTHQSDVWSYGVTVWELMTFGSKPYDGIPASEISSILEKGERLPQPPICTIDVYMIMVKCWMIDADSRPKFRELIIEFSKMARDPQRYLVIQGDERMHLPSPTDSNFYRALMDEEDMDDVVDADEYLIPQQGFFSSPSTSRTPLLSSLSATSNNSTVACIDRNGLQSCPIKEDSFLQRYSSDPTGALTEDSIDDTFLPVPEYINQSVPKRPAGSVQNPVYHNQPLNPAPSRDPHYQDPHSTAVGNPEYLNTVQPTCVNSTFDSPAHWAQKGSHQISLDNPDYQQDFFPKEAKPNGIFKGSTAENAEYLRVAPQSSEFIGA
T1 sequence (P35918 20-1345): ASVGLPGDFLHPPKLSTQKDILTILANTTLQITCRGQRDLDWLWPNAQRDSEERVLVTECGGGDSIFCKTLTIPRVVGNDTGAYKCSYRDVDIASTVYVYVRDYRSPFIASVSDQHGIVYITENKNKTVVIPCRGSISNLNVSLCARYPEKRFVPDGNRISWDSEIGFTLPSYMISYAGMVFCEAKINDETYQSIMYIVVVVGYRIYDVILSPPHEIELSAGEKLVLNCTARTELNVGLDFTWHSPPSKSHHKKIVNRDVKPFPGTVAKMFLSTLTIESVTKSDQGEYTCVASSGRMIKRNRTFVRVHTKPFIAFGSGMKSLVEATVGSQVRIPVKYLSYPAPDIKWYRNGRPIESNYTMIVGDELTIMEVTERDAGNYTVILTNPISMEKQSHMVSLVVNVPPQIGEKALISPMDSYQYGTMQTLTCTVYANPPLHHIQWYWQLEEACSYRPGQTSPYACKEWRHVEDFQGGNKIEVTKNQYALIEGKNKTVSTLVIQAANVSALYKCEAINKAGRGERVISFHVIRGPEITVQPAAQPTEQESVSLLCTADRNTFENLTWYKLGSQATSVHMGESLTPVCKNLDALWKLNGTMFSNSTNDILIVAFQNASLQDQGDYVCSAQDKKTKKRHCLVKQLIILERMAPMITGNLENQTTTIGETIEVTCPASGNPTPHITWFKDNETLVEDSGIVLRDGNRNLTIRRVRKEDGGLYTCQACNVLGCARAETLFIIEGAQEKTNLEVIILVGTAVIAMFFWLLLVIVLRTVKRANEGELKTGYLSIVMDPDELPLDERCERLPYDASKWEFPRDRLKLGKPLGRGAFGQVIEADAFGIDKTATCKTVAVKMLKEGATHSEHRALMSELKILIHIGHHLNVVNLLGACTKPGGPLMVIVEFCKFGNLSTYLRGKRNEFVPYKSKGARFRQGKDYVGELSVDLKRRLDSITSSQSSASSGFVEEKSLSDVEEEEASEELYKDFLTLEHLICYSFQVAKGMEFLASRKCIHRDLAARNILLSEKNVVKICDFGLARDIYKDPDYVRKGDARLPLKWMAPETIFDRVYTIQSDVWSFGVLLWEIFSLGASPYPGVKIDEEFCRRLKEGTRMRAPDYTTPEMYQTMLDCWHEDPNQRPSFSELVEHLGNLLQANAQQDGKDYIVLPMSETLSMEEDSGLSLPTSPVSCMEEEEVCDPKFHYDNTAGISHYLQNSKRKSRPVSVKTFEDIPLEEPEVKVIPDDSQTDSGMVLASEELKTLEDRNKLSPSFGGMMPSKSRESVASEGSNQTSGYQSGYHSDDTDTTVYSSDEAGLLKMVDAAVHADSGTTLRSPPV

IC50 ([1]; read-out: IC50 of inhibition of cellular migration into the scratch, VEGF-stimulated MS1 cells, 24 hrs, six-point dose response): ~120 nM | IC50 (KDR): ~1230 nM | reduction of EGF-induced EGFR-phosphorylation (EGFR; 100 mg/kg oral, vs positive control): about 90% | IC50 (EGFR; read-out: IC50 plasma concentration for inhibition of EGFR phosphorylation in tumors): 720 nM | IC50 (Src [6]): 10.3 nM | reduction of phospho-EphB4 (EphB4; 100 mg/kg oral on three consecutive days): approximately 70% | IC50 (EphB4; HCT116/EphB4 xenografts, read-out: plasma concentration predicted for 50% inhibition of EphB4-phosphorylation): ~2400 nM | reduction of EphB4 phosphorylation in tumors (EphB4; plasma concentration of about 3 μM): approximately 70% | IC50 [7]: ~1000 nM | reduction of phospho-ErbB2 (ErbB2 (Her2); 100 mg/kg oral on three consecutive days, vs vehicle): approximately 70% | IC50 (ErbB2 (Her2); BT474 xenografts, correlated with plasma concentration, read-out: IC50 of inhibition of phospho-ErbB2 accumulation in tumors (plasma concentration)): 3.58 µM | reduction of phospho-ErbB2 (ErbB2 (Her2); plasma concentration of about 5.37 μM): approximately 69%
SMILES: COc1cc2c(Nc3ccc(Cl)c(Cl)c3F)ncnc2cc1OCC1C[C@@H]2CN(C)C[C@@H]2C1 (stereo partly drawn) [EXEL-7647, N-(3,4-dichloro-2-fluorophenyl)-7-({[(3aR,6aS)-2-methyloctahydrocyclopenta[c]pyrrol-5-yl]methyl}oxy)-6-(methyloxy)quinazolin-4-amine]
cytotoxicity IC50 relative to IC50 of tubule formation inhibition (HMVECs): approximately 5 fold | inhibition at 0.2 µM (JIMT-1 cells; EXEL-7647 0.2 μM alone): 15.7% | inhibition at 0.5 µM (JIMT-1 cells; EXEL-7647 0.5 μM alone): 20.3% | inhibition at 1 µM (JIMT-1 cells; EXEL-7647 1.0 μM alone): 22.7% | inhibition at 2 µM (JIMT-1 cells; EXEL-7647 2.0 μM alone): 28.8% | inhibition at 5 µM (JIMT-1 cells; EXEL-7647 5.0 μM alone): 81.7% | cytotoxicity in scratch assay ([1]; concentrations below 1.1 μM): No evidence for cytotoxicity | inhibition at 0.2 µM (HCC1954 cells; EXEL-7647 0.2 μM alone): 22.5% | inhibition at 0.5 µM (HCC1954 cells; EXEL-7647 0.5 μM alone): 32.6% | inhibition at 1 µM (HCC1954 cells; EXEL-7647 1.0 μM alone): 38.1% | inhibition at 2 µM (HCC1954 cells; EXEL-7647 2.0 μM alone): 43.6% | inhibition at 5 µM (HCC1954 cells; EXEL-7647 5.0 μM alone): 80.4% | calculated ED50 of inhibition of tumor growth (BT474 tumor xenografts): 30 mg EXEL-7647 per kg of body weight | CD31 Analysis % Reduction ([2]; 10 mg/kg oral): 30.23% | Ki67 Expression % Reduction ([2]; 10 mg/kg oral): 39.6% | Necrosis fold increase ([2]; 10 mg/kg oral): 1.6 fold | CD31 Analysis MVC (mean vessel count) ([2]; 10 mg/kg oral): 12.93 (2.3) | Ki67 Expression % of Cells ([2]; 10 mg/kg oral): 29.8 (13.3) % | Necrosis % increase ([2]; 10 mg/kg oral): 25.0 (14.2) % | CD31 Analysis % Reduction ([2]; 30 mg/kg oral): 55.83% | Ki67 Expression % Reduction ([2]; 30 mg/kg oral): 42.6% | Necrosis fold increase ([2]; 30 mg/kg oral): 2.0 fold | CD31 Analysis MVC (mean vessel count) ([2]; 30 mg/kg oral): 8.18 (1.4) | Ki67 Expression % of Cells ([2]; 30 mg/kg oral): 28.3 (10.4) % | Necrosis % increase ([2]; 30 mg/kg oral): 30.6 (11.3) % | CD31 Analysis % Reduction ([2]; 100 mg/kg oral): 91.23% | Ki67 Expression % Reduction ([2]; 100 mg/kg oral): 49.6% | Necrosis fold increase ([2]; 100 mg/kg oral): 4.5 fold | CD31 Analysis MVC (mean vessel count) ([2]; 100 mg/kg oral): 1.625 (1) | Ki67 Expression % of Cells ([2]; 100 mg/kg oral): 24.87 (4.9) % | Necrosis % increase ([2]; 100 mg/kg oral): 71.1 (8.1) % | tumor weight at end of study ([2]; 100 mg/kg oral, tumor weight at start 100.6±8.7 mg): 112 ± 16.2 mg | IC50 [3]: ~220 nM | IC50 [4]: ~1300 nM | final tumor weight ([5]; 100 mg/kg oral, up to twenty-eight days, starting tumor weight 94±9 mg): 117 ± 33 mg | calculated ED50 of inhibition of tumor growth ([5]; MDA-MB-231 xenografts, oral, up to twenty-eight consecutive days): 22.9 mg of XL647 per kg body weight

able to inhibit SRC activity (SRC phosphorylation) (Src [8]): not
SMILES: CS(=O)(=O)CCNCc1ccc(-c2ccc3ncnc(Nc4ccc(OCc5cccc(F)c5)c(Cl)c4)c3c2)o1 [lapatinib]
